Results published in publication PMC11212140, “Molecular Bidents with Two Electrophilic Warheads as a New Pharmacological Modality” (ACS Central Science, 2024).

Tests used:
Test in all cases: KiNativ profiling in H3255 cells
Type in all cases: cell-based, human
BRAF, RAF1 = details: 2.5 µM; Activation Loop; IGDFGLATVKSR
Procedure: (§1) H3255 cells were plated with 6.5x10^6 per condition in fresh media in 15 cm plates and treated the 80% confluency for 2 hours with DMSO or 2.5 μM of ZNL-0056. To harvest cells, plates were washed 3 times with cold PBS, then collected by scraping into 4 mL of cold PBS containing protease and phosphatase inhibitors. Cells were pelleted by centrifugation at 1350 g at 4 ℃ for 5 minutes and immediately frozen in liquid nitrogen. The frozen samples were sent to ActivX Biosciences (La Jolla, CA) for the remainder of the KiNativ profiling experiment4. […]

CHK1 = system: T1, CHK1; details: 2.5 µM; Lys2; DIKPENLLLDER
T1 construct: purchased ActivX Biosciences (KiNativ)
Procedure: as §1

CSK = system: T2, CSK; details: 2.5 µM
T2 construct: purchased ActivX Biosciences (KiNativ)
Procedure: as §1

CaMK2g = system: T3, CaMK2g; details: 2.5 µM; Lys1; TSTQEYAAKIINTK
T3 construct: purchased ActivX Biosciences (KiNativ)
Procedure: as §1

Erk1 = system: T4, Erk1; details: 2.5 µM; Lys2; DLKPSNLLINTTCDLK
T4 construct: purchased ActivX Biosciences (KiNativ)
Procedure: as §1

FAK = system: T5, FAK; details: 2.5 µM
T5 construct: purchased ActivX Biosciences (KiNativ)
Procedure: as §1

FAM20B = system: T6, FAM20B; details: 2.5 µM; ATP; ETEPACADGDIMEGSVTLWLPDVWPLQKHR
T6 construct: purchased ActivX Biosciences (KiNativ)
Procedure: as §1

FRAP = system: T7, FRAP; details: 2.5 µM; ATP; IQSIAPSLQVITSKQRPR
T7 construct: purchased ActivX Biosciences (KiNativ)
Procedure: as §1

HER3/ErbB3 = system: T8, HER3/ErbB3; details: 2.5 µM
T8 construct: purchased ActivX Biosciences (KiNativ)
Procedure: as §1

HRI = system: T9, HRI; details: 2.5 µM; Activation Loop; IGDFGLACTDILQKNTDWTNR
T9 construct: purchased ActivX Biosciences (KiNativ)
Procedure: as §1

LATS1 = system: T10, LATS1; details: 2.5 µM
T10 construct: purchased ActivX Biosciences (KiNativ)
Procedure: as §1

LATS2 = system: T11, LATS2; details: 2.5 µM
T11 construct: purchased ActivX Biosciences (KiNativ)
Procedure: as §1

MAP2K1 = system: T12, MAP2K1; details: 2.5 µM; Lys2; IMHRDVKPSNILVNSR
T12 construct: purchased ActivX Biosciences (KiNativ)
Procedure: as §1

MAP2K6 = system: T13, MAP2K6; details: 2.5 µM
T13 construct: purchased ActivX Biosciences (KiNativ)
Procedure: as §1

MAP3K1 = system: T14, MAP3K1; details: 2.5 µM; Lys2; DVKGANLLIDSTGQR
T14 construct: purchased ActivX Biosciences (KiNativ)
Procedure: as §1

MAP4K5 = system: T15, MAP4K5; details: 2.5 µM
T15 construct: purchased ActivX Biosciences (KiNativ)
Procedure: as §1

MELK = system: T16, MELK; details: 2.5 µM; Lys2; DLKPENLLFDEYHK
T16 construct: purchased ActivX Biosciences (KiNativ)
Procedure: as §1

MLK3 = system: T17, MLK3; details: 2.5 µM; Lys2; DLKSNNILLLQPIESDDMEHK
T17 construct: purchased ActivX Biosciences (KiNativ)
Procedure: as §1

MLKL = system: T18, MLKL; details: 2.5 µM; Lys1; APVAIKVFK
T18 construct: purchased ActivX Biosciences (KiNativ)
Procedure: as §1

MST1 = system: T19, MST1; details: 2.5 µM; Lys1; ETGQIVAIKQVPVESDLQEIIK
T19 construct: purchased ActivX Biosciences (KiNativ)
Procedure: as §1

NDR1, NDR2 = details: 2.5 µM; Activation Loop; LSDFGLCTGLKK
Procedure: as §1

NEK4 = system: T20, NEK4; details: 2.5 µM; Lys2; DLKTQNVFLTR
T20 construct: purchased ActivX Biosciences (KiNativ)
Procedure: as §1

PCTAIRE1, PCTAIRE3 = details: 2.5 µM; Lys2; DLKPQNLLINER
Procedure: as §1

PI4KA, PI4KAP2 = details: 2.5 µM; ATP; SGTPMQSAAKAPYLAK
Procedure: as §1

PKD1, PKD2 = details: 2.5 µM; Lys2; NIVHCDLKPENVLLASADPFPQVK
Procedure: as §1

PLK2 = system: T21, PLK2; details: 2.5 µM; Lys2; DLKLGNFFINEAMELK
T21 construct: purchased ActivX Biosciences (KiNativ)
Procedure: as §1

RON = system: T22, RON; details: 2.5 µM; Lys1; IQCAIKSLSR
T22 construct: purchased ActivX Biosciences (KiNativ)
Procedure: as §1

ULK1 = system: T23, ULK1; details: 2.5 µM; Lys2; DLKPQNILLSNPAGR
T23 construct: purchased ActivX Biosciences (KiNativ)
Procedure: as §1

ULK3 = system: T24, ULK3; details: 2.5 µM; Lys1; EVVAIKCVAK
T24 construct: purchased ActivX Biosciences (KiNativ)
Procedure: as §1

YES = system: T25, YES; details: 2.5 µM; Lys1; VAIKTLKPGTMMPEAFLQEAQIMK
T25 construct: purchased ActivX Biosciences (KiNativ)
Procedure: as §1

p38b = system: T26, p38b; details: 2.5 µM; Other; QELNKTVWEVPQR
T26 construct: purchased ActivX Biosciences (KiNativ)
Procedure: as §1

p38d, p38g = details: 2.5 µM; Lys2; DLKPGNLAVNEDCELK
Procedure: as §1

[1] = Activation Loop, VSDFGLTKEASSTQDTGKLPVK
[2] = Lys1, VAVKCIKNDATAQAFLAEASVMTQLR
[3] = Lys1, CIGEGQFGDVHQGIYMSPENPALAVAIKTCK
[4] = Activation Loop, SPSQVQVADFGVADLLPPDDKQLLYSEAKTPIK

| Structure (SMILES) | Inhibition (BRAF, RAF1) | Inhibition (CHK1) | Inhibition (CSK; [1]) | Inhibition (CSK; Lys1, VAVKCIK) | Inhibition (CSK; [2]) | Inhibition (CaMK2g) | Inhibition (Erk1) | Inhibition (FAK; Activation Loop, YMEDSTYYKASK) | Inhibition (FAK; [3]) | Inhibition (FAM20B) | Inhibition (FRAP) | Inhibition (HER3/ErbB3; [4]) | Inhibition (HER3/ErbB3; Lys1, GVWIPEGESIKIPVCIKVIEDK) | Inhibition (HRI) | Inhibition (LATS1; Lys1, ALYATKTLR) | Inhibition (LATS1; Lys2, DIKPDNILIDR) | Inhibition (LATS2; Lys1, VDTHALYAMKTLR) | Inhibition (LATS2; Lys2, DIKPDNILIDLDGHIK) | Inhibition (MAP2K1) | Inhibition (MAP2K6; Lys1, HVPSGQIMAVKR) | also measured |
| --- | --- | --- | --- | --- | --- | --- | --- | --- | --- | --- | --- | --- | --- | --- | --- | --- | --- | --- | --- | --- | --- |
| C=CC(=O)Nc1cc(Nc2nccc(-c3cn(C)c4ccccc34)n2)c(OC)cc1N(C)CCN(C)C [Osimertinib, osimertinib, reference compound] | -21.1% | 15.0% | -3.3% | -17.2% | 16.1% | -34.8% | -0.641% | -25.6% | 16.5% | 20.1% | -39.1% | -24.2% | -64.6% | -4.0% | -8.1% | 5.0% | -12.9% | -15.6% | -20.8% | 6.1% | Inhibition (MAP2K6; Lys2, DVKPSNVLINALGQVK): -10.0%; Inhibition (MAP3K1): 8.4%; Inhibition (MAP4K5; Lys1, NVHTGELAAVKIIK): -13.4%; Inhibition (MAP4K5; Lys2, DIKGANILLTDHGDVK): -6.7%; Inhibition (MELK): -15.3%; Inhibition (MLK3): -1.5%; Inhibition (MLKL): -10.0%; Inhibition (MST1): -24.9%; Inhibition (NDR1, NDR2): -22.1%; Inhibition (NEK4): -12.6%; Inhibition (PCTAIRE1, PCTAIRE3): 8.7%; Inhibition (PI4KA, PI4KAP2): 30.1%; Inhibition (PKD1, PKD2): -8.5%; Inhibition (PLK2): 10.4%; Inhibition (RON): 8.9%; Inhibition (ULK1): -9.0%; Inhibition (ULK3): -21.6%; Inhibition (YES): 19.6%; Inhibition (p38b): 7.2%; Inhibition (p38d, p38g): 11.1% |
| C=CC(=O)Nc1cc(C(=O)Nc2nc3cccc(C)c3n2[C@@H]2CCCCN(C(=O)C=C)C2)cs1 [ZNL-0056] | -19.4% | -8.1% | -1.9% | -0.8% | 6.7% | -27.3% | -17.6% | -16.1% | -40.2% | -17.9% | -27.2% | 25.6% | -12.4% | 6.7% | 3.8% | 20.9% | 15.4% | 23.5% | -10.3% | -13.1% | Inhibition (MAP2K6; Lys2, DVKPSNVLINALGQVK): -0.186%; Inhibition (MAP3K1): -17.1%; Inhibition (MAP4K5; Lys1, NVHTGELAAVKIIK): -3.7%; Inhibition (MAP4K5; Lys2, DIKGANILLTDHGDVK): 15.2%; Inhibition (MELK): 23.0%; Inhibition (MLK3): 26.8%; Inhibition (MLKL): 4.5%; Inhibition (MST1): -5.5%; Inhibition (NDR1, NDR2): -7.6%; Inhibition (NEK4): 7.6%; Inhibition (PCTAIRE1, PCTAIRE3): -3.3%; Inhibition (PI4KA, PI4KAP2): -23.5%; Inhibition (PKD1, PKD2): 7.5%; Inhibition (PLK2): 18.8%; Inhibition (RON): -9.0%; Inhibition (ULK1): 3.5%; Inhibition (ULK3): -7.8%; Inhibition (YES): -13.4%; Inhibition (p38b): -8.8%; Inhibition (p38d, p38g): -20.6% |
